These results are taken from patent publication US20240390301A1, “COMBINATIONS OF PERIPHERAL 5-HT2A RECEPTOR ANTAGONISTS AND CENTRAL 5-HT2A RECEPTOR AGONISTS” (priority 2021, published 2024).

A short description of one series: in vitro. Set-up: fraction unbound at 4 h: dose or concentration left out as unconfirmed. Conditions: rat, brain homogenate. The procedure: Various putative peripheral 5-HT2A receptor antagonists were tested for binding to rat brain homogenate via equilibrium dialysis, with the results summarized in Table 7.
Method 1. Rat brain homogenate was thawed in a water bath at room temperature and then incubated at 37° C. for 10 min before use. Aliquots of 50 μL of loading matrix containing test compound (2 μM final incubation concentration) or control compound in triplicate were transferred to a Sample Collection Plate. The samples were matched with opposite blank buffer to obtain a final volume of 100 μL with a volume ratio of matrix: Dialysis Buffer of 1:1 (v:v) in each well. The stop solution (200 ng/mL tolbutamide and 200 ng/ml labetalol in ACN) was immediately added to these T0 samples of test compound and control compound. The plate was sealed and shaken at 800 rpm for 10 min. T0 samples were stored at 2-8° C. pending further processing along with other post-dialysis samples. An aliquot of 100 μL of the loading matrix containing test compound or control compound was transferred to the donor side of each dialysis well in triplicate and 100 μL of the Dialysis Buffer was loaded to the receiver side of the well. Then the plate was rotated at approximately 100 rpm in a humidified incubator with 5% CO2 at 37±1° C. for 4 hours. At the end of the dialysis. aliquots of 50 μL from the buffer side and matrix side of the dialysis device were taken into new 96-well plates (Sample Collection Plates). An equal volume of opposite blank matrix (buffer or matrix) in each sample was added to reach a final volume of 100 μL, with a volume ratio of matrix: Dialysis Buffer of 1:1 (v:v) in each well. All samples were further processed by protein precipitation before LC-MS/MS analysis.
Method 2. Aliquots (200 μL) of test compounds and positive controls at […] in rat brain homogenate (triplicates) were added to the rapid equilibrium dialysis (RED) chamber of dialysis inserts. A 350 μL aliquot of dialysis buffer was added to the buffer chamber of the inserts. After sealing the RED device with an adhesive film, dialysis was conducted at 37° C. with shaking at 100 RPM for 4 hours. Following dialysis, an aliquot of 50 μL was removed from each well (brain homogenate and buffer) and diluted with an equal volume of opposite matrix to nullify the matrix effect. Similarly, buffer was added to recovery and stability samples. An aliquot of 100 μL was used for LC-MS/MS analysis following protein precipitation with ACN containing internal standard.

The target of the next series is T1, 5-HT2B receptor (Homo sapiens, UniProt P41595).
T1 construct: host or cells: HEK293 (stably transfected)
The series can be described thus: FLIPR Ca2+ flux functional assay, antagonist activity at 5-HT2B. Type of series: cell-based. Conditions: for 5-HT2B % Inh @ Max Dose: at max dose. How it is done:
(§1) Key peripheral 5-HT2A receptors antagonists were tested for antagonist activity at several serotonin (5-HT) receptor subtypes (5-HT2A and 5-HT2B) using Ca^2+ flux functional assays, with the results summarized in Table 3. […] The ability to block peripheral 5-HT2B receptors in addition to 5-HT2A receptors is advantageous in the context of the present disclosure, as such blockade is likely to mitigate the potential cardiac valvulopathy induced by 5-HT2B receptor agonists. This is expected to be a potential side effect of many classical psychedelics, which activate 5-HT2B receptors as a secondary target. Accordingly, xylamidine and BW501C67 are preferred over Compound 14a for use in combination with 5-HT2A receptor agonists that also activate 5-HT2B receptors, since they also block this important off target. When taken together with the binding data presented above, xylamidine and BW501C67 appear to be potent pan-antagonists for 5-HT2-type receptors, whereas Compound 14a is selective for 5-HT2A receptors specifically.
(§2) Functional Assays at 5-HT2A and 5-HT2B. Antagonist activity at 5-HT2A and 5-HT2B receptors was determined using a FLIPR Ca^2+ flux assay at WuXi AppTec (Hong Kong) Limited according to their standard protocols. Briefly, stably transfected HEK293 cells expressing the receptor of interest were grown and plated in a 384 well plate and incubated at 37° C. and 5% CO2 overnight. This was combined with a fluorescent dye (Fluo-4 Direct™) to make a final assay concentration of 2.5 mM. Compounds were diluted 1:3.16 for 10 points and 750 nL was added to a 384 well compound plate using ECHO along with 30 μL assay buffer. The fluorescent dye was then added to the assay plate along with assay buffer to a final volume of 40 μL. The cell plate was incubated for 50 min at 37° C. and 5% CO2 and placed into the FLIPR Tetra along with the compound plate. 10 μL of references and compounds were then transferred from the compound plate into the cell plate and the fluorescent signal was read. Next, 10 μL of a 6× solution of 5-carboxamidotryptamine (5-CT) at the calculated EC80 was added and the fluorescent signal read again. Finally, the Max-Min signal was calculated for the runs with and without agonist.
In general terms: Calcium flux is commonly read through the fluorescence of an indicator in the cells.

A further series has as its target T2, 5-HT2A receptor (Homo sapiens, UniProt P28223).
T2 construct: WuXi AppTec (Hong Kong) Limited (contract laboratory that ran the assay)
The series can be described thus: FLIPR Ca2+ flux functional assay, antagonist activity at 5-HT2A. Type of series: cell-based. Particulars: for 5-HT2A % Inh @ Max Dose: at max dose. The procedure:
as §1, §2

The next series addresses T3, 5-HT2C receptor (Homo sapiens, UniProt P28335).
T3 construct: WuXi AppTec (Hong Kong) Limited (contract laboratory that ran the assay)
T3 sequence (P28335 33-458): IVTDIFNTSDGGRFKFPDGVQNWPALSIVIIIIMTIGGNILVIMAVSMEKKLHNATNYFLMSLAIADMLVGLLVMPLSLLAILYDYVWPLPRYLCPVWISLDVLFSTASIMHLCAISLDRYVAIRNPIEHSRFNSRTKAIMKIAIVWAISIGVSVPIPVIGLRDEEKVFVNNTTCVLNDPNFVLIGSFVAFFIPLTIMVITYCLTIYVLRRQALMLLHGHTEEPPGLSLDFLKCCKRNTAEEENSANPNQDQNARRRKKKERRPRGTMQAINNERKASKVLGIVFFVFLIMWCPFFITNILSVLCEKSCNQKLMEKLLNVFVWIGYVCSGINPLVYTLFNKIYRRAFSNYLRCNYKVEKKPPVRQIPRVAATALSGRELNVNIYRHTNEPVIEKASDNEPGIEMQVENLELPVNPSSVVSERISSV
The series is described as follows: biochemical. Type of series: binding. Particulars: HEK293 stable cell line, 2 nM [3H]mesulergine, 1 h, 25° C.; for Ki: read-out: 5-HT2C Ki (nM) ([3H]mesulergine).

Where [1] appears, read: antagonist activity, Ca2+ flux, HEK293 cells, agonist at EC80, read-out: 5-HT2B IC50.
Setting [2] is: antagonist activity, Ca2+ flux, HEK293 cells, agonist at EC80, read-out: 5-HT2A IC50.
Setting [3] is: antagonist activity, Ca2+ flux, HEK293 cells, agonist at EC80.

The fraction unbound is the share of the substance not bound to proteins or other matrix. A word on the IC50: it is the point on the concentration scale where inhibition reaches its midpoint. For orientation: Ki means the equilibrium dissociation constant of an inhibitor or competing ligand from its target.

Like-named read-outs stand apart in the source and are kept apart here. Bounds are passed on as bounds.

T2 sequence (P28223 whole entry): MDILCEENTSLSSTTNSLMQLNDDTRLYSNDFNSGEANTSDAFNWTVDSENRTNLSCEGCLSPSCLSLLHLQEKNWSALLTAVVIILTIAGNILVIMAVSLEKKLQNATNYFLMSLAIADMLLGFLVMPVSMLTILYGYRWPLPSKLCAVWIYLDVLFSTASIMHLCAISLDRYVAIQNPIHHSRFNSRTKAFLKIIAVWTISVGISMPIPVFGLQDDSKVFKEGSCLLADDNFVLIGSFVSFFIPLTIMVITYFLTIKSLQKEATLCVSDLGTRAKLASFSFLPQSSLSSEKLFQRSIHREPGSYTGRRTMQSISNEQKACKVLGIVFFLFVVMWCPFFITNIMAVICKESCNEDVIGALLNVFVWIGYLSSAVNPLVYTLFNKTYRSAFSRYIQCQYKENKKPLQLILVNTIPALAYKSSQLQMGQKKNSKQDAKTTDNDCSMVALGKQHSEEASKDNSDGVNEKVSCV
T1 sequence (P41595 whole entry): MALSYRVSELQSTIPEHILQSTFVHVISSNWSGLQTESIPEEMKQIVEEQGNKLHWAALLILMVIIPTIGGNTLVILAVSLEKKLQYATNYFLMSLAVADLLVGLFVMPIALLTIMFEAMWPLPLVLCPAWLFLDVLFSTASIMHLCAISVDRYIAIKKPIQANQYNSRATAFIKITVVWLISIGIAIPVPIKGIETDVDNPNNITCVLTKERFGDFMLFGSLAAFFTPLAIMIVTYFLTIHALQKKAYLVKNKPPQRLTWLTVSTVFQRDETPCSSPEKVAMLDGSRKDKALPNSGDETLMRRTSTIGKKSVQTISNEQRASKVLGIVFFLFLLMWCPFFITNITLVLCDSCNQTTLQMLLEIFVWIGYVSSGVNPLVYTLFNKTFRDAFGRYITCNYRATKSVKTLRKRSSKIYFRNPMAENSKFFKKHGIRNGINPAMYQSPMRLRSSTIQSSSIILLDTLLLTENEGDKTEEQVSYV

In the series “in vitro”, `COc1cccc(C(=O)Nc2ccc(OCCN3CCOCC3)c(-c3ccnn3C)c2)c1` [temanogrel] had a fraction unbound at 4 h of 0.108.

As for `CC(C)COc1ccc(CNC(=O)N(Cc2ccc(F)cc2)C2CCN(C(=O)CC[C@H](N)C(=O)O)CC2)cc1` [Compound 14a, (S)-2-amino-5-(4-(1-(4-fluorobenzyl)-3-(4-isobutoxybenzyl)ureido)piperidin-1-yl)-5-oxopentanoic acid], the fraction unbound at 4 h in “in vitro” was 0.078. Besides, the half-maximal inhibitory concentration (IC50) is over 10000 nM on 5-HT2B receptor (setting [1]) and 297 nM at 5-HT2A receptor (setting [2]). In addition, the “5-HT2B % Inh @ Max Dose” value at 5-HT2B receptor (antagonist activity, Ca2+ flux) was −12.17%. The “5-HT2A % Inh @ Max Dose” value on 5-HT2A receptor (antagonist activity, Ca2+ flux) turned out to be 100.01%. The Ki on 5-HT2C receptor was 106 nM.

For `COc1cccc(CCc2ccccc2OCC(CN(C)C)OC(=O)CCC(=O)O)c1` (centres unmarked) [sarpogrelate], the fraction unbound at 4 h in “in vitro” was 0.054.

In the series “in vitro”, `CC(CNC(=N)CNc1ccccc1)Oc1cccc(Cl)c1.O=CO` (centres unmarked) [BW501C67, N-(2-(3-chlorophenoxy)propyl)-2-(phenylamino)acetimidamide formate] had a fraction unbound at 4 h, 2 μM of 0.003. On 5-HT2B receptor, the IC50 was 21.6 nM. In addition, at 5-HT2B receptor (setting [3]), the “5-HT2B IC50 (nM)” value is on record as “high potency antagonism”. Also, on 5-HT2B receptor (antagonist activity, Ca2+ flux), the “5-HT2B % Inh @ Max Dose” value is recorded as 99.74%. Further, on 5-HT2A receptor, the concentration for half-maximal inhibition (IC50) was determined as 14.5 nM. Moreover, the “5-HT2A % Inh @ Max Dose” value on 5-HT2A receptor (antagonist activity, Ca2+ flux) stood at 100.13%. Besides, at 5-HT2C receptor, the “5-HT2C Ki (nM) ([3H]mesulergine)” value was “high affinity” and the Ki came out at 1.34 nM.

Consider `COc1cccc(OC(C)CNC(=N)Cc2cccc(C)c2)c1.O=C(O)C(F)(F)F` (centres unmarked) [xylamidine, N-(2-(3-methoxyphenoxy)propyl)-2-(m-tolyl) acetimidamide trifluoroacetate], for which the “5-HT2B IC50 (nM)” value on 5-HT2B receptor (setting [3]) was “high potency antagonism”. Also, at 5-HT2B receptor (setting [1]), the IC50 turned out to be 13.3 nM. The “5-HT2B % Inh @ Max Dose” value at 5-HT2B receptor (antagonist activity, Ca2+ flux) was 99.68%. The IC50 on 5-HT2A receptor (setting [2]) came to 24 nM. Further, the “5-HT2A % Inh @ Max Dose” value at 5-HT2A receptor (antagonist activity, Ca2+ flux) is 99.81%. On 5-HT2C receptor, the “5-HT2C Ki (nM) ([3H]mesulergine)” value was “high affinity” and the Ki stood at 1.45 nM.
